From patent US11111253B2, “6-aryl-7-substituted-3-(1H-pyrazol-5-yl)-7H-[1,2,4]triazolo[3,4-b][1,3,4]thiadiazines as inhibitors of the STAT3 pathway with anti-proliferative activity” (UNIVERSITY OF PITTSBURGH—OF THE COMMONWEALTH SYSTEM OF …, priority 2015, dated 2021) come the findings set out here.

A word on the GI50: it is the concentration that inhibits growth by half. Low readings indicate greater sensitivity of the cells, high ones lower sensitivity of the cells. In general, IC50 refers to the concentration at which inhibition is half-maximal. A high value points to a need for much substance.

Common to all, as to type: cell-based
One test relates to 686LN. In words: Growth inhibition 686LN. The settings on record: Table 6; average of 2 experiments.
The subject of another test is FADU. Kind of test: Growth inhibition FADU. The settings on record: Table 6; average of 2 experiments.
The next test relates to OSC19. Kind of test: Growth inhibition OSC19. The note with it: Table 6; average of 2 experiments.
For the next test, the system named is STAT3. Kind of test: HCS STAT3 assay. The note with it: Table 4. The procedure: (§1) Compound samples (in 3-5 mg quantities) were evaluated in a variety of assays. All compound submissions were fully characterized (1H, 13C, IR, FIRMS), satisfied purity criteria (≥95% LC/MC, ELS).
The next test relates to STAT1. Kind of test: STAT1 assay (selectivity). The note with it: Table 4. The procedure: as §1
For another test, the system named is Cal33 cells. In words: Cal33 growth inhibition. The note with it: Table 5; * average of 2 experiments. The method, then:
as §1

Consider `CC1Sc2nnc(-c3cc(-c4ccccc4)n[nH]3)n2N=C1c1ccccc1` (stereo not shown) [compound 21], for which the GI50 in the test on 686LN is 32.2 µM; in the test on FADU, 32.7 µM; with OSC19, 31.3 µM.
Regarding “1-(5-(6-(4-methoxyphenyl)-7-methyl-7H-[1,2,4]triazolo[3,4-b][1,3,4]thiadiazin-3-yl)-3-phenyl-1H-pyrazol-1-yl)ethanone [8B]”, the IC50 is 3.7 µM in the test on STAT3 and more than 50 µM with STAT1.
Regarding “1-(3-(6-(4-Methoxyphenyl)-7-methyl-7H-[1,2,4]triazolo[3,4-b][1,3,4]thiadiazin-3-yl)-5-phenyl-1H-pyrazol-1-yl)ethanone [8A]”, in the test with STAT1, the half-maximal inhibitory concentration (IC50) was 40.6 ± 7.5 µM.
In the test on Cal33 cells, `COc1ccc(C2=Nn3c(nnc3-c3cc(-c4ccc(Cl)cc4)n[nH]3)S[C@@H]2C)cc1` (single isomer, unassigned; ent-1) [24 (ent-1)] gave a concentration for 50% growth inhibition (GI50) of 2.7 µM.
